Values joined by “and” are separate entries in the source; they are usually repeats but may differ in a detail not shown here. Equal values may be shown once. Where a name gives a salt, the structure may show the parent alone. Read-outs that look alike come from different tables or passages of the source.
How the values were obtained:
ROCK1 = ROCK1 (Homo sapiens (Human), UniProt Q13464); assay: biochemical
MYLK4 = MYLK4 (Homo sapiens (Human), UniProt Q86YV6); assay: Assay for inhibitory effect on MYLK-4, LanthaScreen Eu Kinase Binding Assay
YSK4 = YSK4 (Homo sapiens (Human), UniProt Q56UN5); assay: Assay for inhibitory effect on YSK-4, Z'-LYTE kinase assay; format: biochemical
Procedure: C. Assay for Inhibitory Effect on YSK-4
The experimental procedure referred to the Z′-LYTE Screening Protocol and Assay Conditions provided by ThermoFisher Scientific.
C-1. Material Preparation
Peptide/Kinase Mixture was pre-diluted with Kinase Buffer to 2× working concentration.
ATP solution was pre-diluted with Kinase Buffer (50 mM HEPES pH 7.5, 0.01% BRIJ-35, 10 mM MgCl2, 1 mM EGTA) to 4× working concentration.
The development reagent solution is Novel PKC Lipid Mix, which contains 2 mg/mL Phosphatidyl Serine, 0.2 mg/mL DAG in 20 mM HEPES, pH 7.4 and 0.3% CHAPS, and was pre-diluted 10 fold with development buffer.
1. 100 nL of the above diluted test compound and 2.4 μL of kinase buffer were added to a black 384-well plate (Corning, Cat. NO. 4514), then add 5 μL of the peptide/kinase mixture mentioned above was added thereto, and after that 2.5 μL of ATP solution was added thereto, and the culture plate was shaken for 30 seconds.
2. Next, the culture plate was placed at room temperature and incubated for 60 minutes.
3. After that 5 μL of the development reagent solution was added and the culture plate was shaken for 30 seconds in the dark, and then the data was read and analyzed with a fluorescence plate reader.
In addition, for the kinase, the following control group was prepared and placed on the same culture plate as the kinase:
(1) 0% Phosphorylation Control (100% Inhibition Control)
This control yields 100% cleaved peptide in the Development Reaction.
(2) 100% Phosphorylation Control
A synthetically phosphorylated peptide of the same sequence as the peptide substrate is used as the 100% Phosphorylation Control.
The Phosphorylation percent achieved in a specific reaction well (Experimental group) was calculated based on the 0% Phosphorylation Control and 100% Phosphorylation Control.

[1] = test system: rabbit eyes with normal intraocular pressure; assay: Evaluation of the effect of decreasing intraocular pressure in a model of rabbit with normal intraocular pressure; format: in vivo, New Zealand white rabbit
Procedure: Evaluation of the Effect of Decreasing Intraocular Pressure in a Model of Rabbit with Normal Intraocular Pressure
Experimental animal: New Zealand white rabbit, male, weighing more than 2 kg. New Zealand white rabbits were purchased from Huijun Farm (Changhua, Taiwan). After a one-week quarantine period, they were raised in MASTER LABORATORY Co., Ltd under the environmental conditions of 16-22° C., 30-70% relative humidity (RH), 8 hours day/16 hours night.
(1) Evaluation of the Effect of Reducing Intraocular Pressure
After weighing 12 New Zealand white rabbits (2.0-4.0 kg) and grouping them (n=3-6 in each group), the white rabbits were fixed with a wrap.

rabbit eyes = assay: Eye irritation evaluation (OECD/OCDE 405); format: in vivo, New Zealand white rabbit
From the text: (2) Irritation Evaluation

cornea of rabbit eyes = assay: Observation of cornea with a slit lamp after 7 days of administration; format: in vivo, New Zealand white rabbit; details: 0.1% eye drops, continuous administration for 7 days, once a day
[2] = Content analysis for candidate drug in aqueous humor, iris and ciliary body after administration
From the text: (4) Content Analysis for Candidate Drug in Aqueous Humor (AH) after Administration

normal macaques = assay: Intraocular pressure in animal model of macaque with normal intraocular pressure; format: in vivo; details: eye drop 0.1% or 0.03%
Procedure: The intraocular pressure of animals was measured by a pneumatic tonometer (Model 30™ Pneumatonometer). Animal anesthesia was required before intraocular pressure measurement. After topical administration (once a day), the intraocular pressure of the animals was measured at the set time points.

[3] = test system: rabbit eyes with high intraocular pressure induced by hypertonic saline; assay: Model of hypertonic saline induced high intraocular pressure rabbit (acute high intraocular pressure model); format: in vivo, New Zealand white rabbit; design: AUC: unit not given beside the values
From the text: Evaluation of the effect of reducing intraocular pressure in model of hypertonic saline induced high intraocular pressure rabbit (acute high intraocular pressure model)
Experimental animal: New Zealand white rabbit, male, weighing 2.0-3.0 kg. New Zealand white rabbits were purchased from a qualified laboratory animal rabbit farm in Taiwan before the experiment and were raised in the Animal Center of National Chiao Tung University.
Negative control 1: Physiological saline
Negative control 2: Vehicle without test substance (containing 5% mannitol, 20 mM boric acid and 0.125% nonoxynol-9)
Experimental method: male New Zealand white rabbits were weighed and grouped and then anesthetized. 160 μL of hypertonic saline (5% NaCl) was injected into the vitreous bodies of the left and right eyes of the rabbit under anesthesia, so that the rabbit eyes became a state of high intraocular pressure. […] The intraocular pressure (TOP) detection time points were before anesthesia (0 hours) and 0.5, 1, 1.5, 3, and 5 hours after administration.
Maximum intraocular pressure difference: The difference between an individual's TOP readings and the average TOP readings of the negative control group 1 (physiological saline) at the time point at which the maximum response is recorded (J Ocul Pharmacol Ther. 2010 April; 26(2): 125-132)

[4] = test system: rabbit eyes with high intraocular pressure induced by magnetic beads; assay: Model of magnetic bead induced high intraocular pressure rabbit (intraocular pressure >30 mmHg); format: in vivo, New Zealand white rabbit
From the text: Evaluation of the effect of reducing intraocular pressure in model of magnetic bead induced high intraocular pressure rabbit (high intraocular pressure model with intraocular pressure >30 mmHg)
Experimental animal: New Zealand white rabbit, male, body weight 2.0-3.0 kg. New Zealand white rabbits were purchased from Huijun Farm (Changhua, Taiwan) before the experiment and were raised in the Animal Center of National Chiao Tung University.
Experimental method: After weighing and grouping male New Zealand white rabbits, the New Zealand white rabbits were anesthetized with Zoletil 50 0.2 mL/kg. 50 μL of magnetic bead solution (50 mg/mL, magnetic bead size of 10 μm) was injected into the left and right anterior eye chambers of the rabbit under anesthesia to make rabbit eyes become a state of high intraocular pressure. After the injection to the anterior chamber of the eye, a strong […] iron magnet ring was immediately put around the eye for 10-20 minutes to make the magnetic beads completely block the drainage tissue of the aqueous humor. After disinfecting the eyeball with antibiotics, moisturizing eye ointment was provided to restore the eyeball, and the intraocular pressure rising was waited. […] The experiment was conducted for 2 consecutive days.

[5] = test system: rabbit eyes with normal intraocular pressure
Procedure: The maximal effect (Emax) dose evaluation of the intraocular pressure reduction model in normal rabbit
Animals: Male New Zealand white rabbits (n=7/each group);
Administration: 50 μL of the test compound was instilled in the right eye (dosed eye) and 50 μL of the vehicle (without the test compound) in the left eye (control eye) of each experimental animal. The 3 formulation mentioned above were administered once a day for 3 consecutive days.
The intraocular pressure of each animal was measured by Tono-Vet (iCare) before administration (0 hours) and 2, 4, 6 and 8 hours after administration on Day 1 and Day 3.
The maximum magnitude of the reduction in intraocular pressure %=(Intraocular pressure of the control eye−Intraocular pressure of the dosed eye)/Intraocular pressure of the control eye*100
The data presented in this experiment is the data that has removed the unqualified data (white rabbits with an intraocular pressure difference ≥2 mmHg (n=1) in the two eyes on Day 1 and >5 mmHg in the two eyes before the administration on the Day 3 (n=1) have been removed) and removed the rebound high intraocular pressure (n=3).

[6] = test system: Human Trabecular Meshwork (HTM) cells; assay: Expression of MYLK-4 in HTM cells by Western blotting; format: cell-based; details: HTM cells treated overnight with 50 μg/mL dexamethasone
Procedure: Expression of MYLK-4 in Cells
Human Trabecular Meshwork (HTM) cells (Cat. NO. 6590) were obtained from ScienCell Research Laboratories. HTM cells were maintained in Trabecular Meshwork Cell Medium (TMCM) (Cat. NO. 6591). TMCM formulated from 500 mL basal medium, 10 mL FBS (Cat. NO. 0010), 5 mL trabecular meshwork cell growth supplement (TMCGS, Cat. NO. 6592) and 5 mL penicillin/streptomycin solution (P/S, Cat. NO. 503). When the cell growth reached 70-80% saturation, the HTM cells were treated overnight with 50 μg/mL dexamethasone (Cat. NO. 4902, Sigma).
The expression of MYLK4 and GAPDH in cell lysates was analyzed by Western blotting method. First, the cells were collected and washed with 1×RIPA (50 mM Tris-HCl, pH 7.4, 150 mM NaCl, 0.25% deoxycholic acid, 0.1% NP-40, 1 mM EDTA, phosphatase inhibitor and protease inhibitor mixture). Next, the cell lysates were separated by SDS-PAGE (sodium dodecyl sulfate polyacrylamide gel electrophoresis) and transferred to PVDF membrane (iBlot™ 2 Transfer Stacks, polyvinylidene fluoride membrane, Invitrogen). Immunoblotting was performed on the membrane with primary antibodies (mouse anti-MYLK4 antibody (1:1,000, Cat. NO. SAB1412951) and mouse anti-GAPDH antibody (1:1,000, Cat. NO. G8795)), wherein GAPDH was used as a loading control. […]

[7] = eye drops containing 0.1% and 0.03% Compound 20
[8] = dose 0.1%, versus physiological saline group

Sequence of ROCK1 (Q13464 whole entry, species assumed): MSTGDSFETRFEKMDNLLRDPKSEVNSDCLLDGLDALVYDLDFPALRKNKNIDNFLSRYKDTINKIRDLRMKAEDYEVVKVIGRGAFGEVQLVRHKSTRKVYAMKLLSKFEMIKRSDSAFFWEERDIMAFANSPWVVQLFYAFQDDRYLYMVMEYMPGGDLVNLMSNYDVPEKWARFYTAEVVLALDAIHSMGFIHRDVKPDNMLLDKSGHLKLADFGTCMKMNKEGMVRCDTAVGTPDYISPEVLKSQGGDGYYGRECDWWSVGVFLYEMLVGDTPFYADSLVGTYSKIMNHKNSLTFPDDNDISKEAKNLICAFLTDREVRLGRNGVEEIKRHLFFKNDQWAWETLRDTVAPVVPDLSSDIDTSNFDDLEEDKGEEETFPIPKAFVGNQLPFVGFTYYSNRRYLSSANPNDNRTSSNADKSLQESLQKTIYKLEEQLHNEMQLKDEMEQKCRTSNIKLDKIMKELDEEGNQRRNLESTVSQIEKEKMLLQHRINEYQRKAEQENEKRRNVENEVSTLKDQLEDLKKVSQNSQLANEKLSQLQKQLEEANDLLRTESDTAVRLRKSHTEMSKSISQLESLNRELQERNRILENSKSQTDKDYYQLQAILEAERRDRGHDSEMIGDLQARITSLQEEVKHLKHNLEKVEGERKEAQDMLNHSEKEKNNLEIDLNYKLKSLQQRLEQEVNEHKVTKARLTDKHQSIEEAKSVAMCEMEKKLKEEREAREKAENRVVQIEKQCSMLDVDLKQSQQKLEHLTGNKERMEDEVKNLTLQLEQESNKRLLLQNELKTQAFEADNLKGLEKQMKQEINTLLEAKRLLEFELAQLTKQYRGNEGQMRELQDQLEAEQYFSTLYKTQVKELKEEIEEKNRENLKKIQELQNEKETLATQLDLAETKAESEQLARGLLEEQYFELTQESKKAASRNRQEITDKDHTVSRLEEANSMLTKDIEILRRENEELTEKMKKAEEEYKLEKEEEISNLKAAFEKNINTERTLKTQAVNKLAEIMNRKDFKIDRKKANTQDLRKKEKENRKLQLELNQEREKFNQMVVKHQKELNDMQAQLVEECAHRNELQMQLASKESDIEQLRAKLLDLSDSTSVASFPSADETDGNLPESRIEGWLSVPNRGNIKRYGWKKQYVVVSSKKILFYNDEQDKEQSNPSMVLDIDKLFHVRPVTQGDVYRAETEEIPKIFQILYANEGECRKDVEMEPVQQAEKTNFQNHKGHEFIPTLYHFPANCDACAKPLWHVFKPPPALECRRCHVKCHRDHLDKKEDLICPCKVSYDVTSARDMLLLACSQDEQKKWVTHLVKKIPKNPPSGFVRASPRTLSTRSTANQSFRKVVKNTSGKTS
Sequence of MYLK4 (Q86YV6 whole entry): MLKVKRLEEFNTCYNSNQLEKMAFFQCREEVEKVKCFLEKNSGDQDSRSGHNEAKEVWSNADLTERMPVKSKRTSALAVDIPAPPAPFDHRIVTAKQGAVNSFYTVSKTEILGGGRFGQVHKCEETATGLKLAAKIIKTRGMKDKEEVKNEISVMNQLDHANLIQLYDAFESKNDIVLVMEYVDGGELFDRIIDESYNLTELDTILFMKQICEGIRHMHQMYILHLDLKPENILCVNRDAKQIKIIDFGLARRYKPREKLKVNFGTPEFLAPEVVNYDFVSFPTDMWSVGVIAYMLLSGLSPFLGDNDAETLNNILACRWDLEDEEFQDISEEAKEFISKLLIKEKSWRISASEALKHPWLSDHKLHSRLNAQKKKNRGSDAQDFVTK
Sequence of YSK4 (Q56UN5 whole entry): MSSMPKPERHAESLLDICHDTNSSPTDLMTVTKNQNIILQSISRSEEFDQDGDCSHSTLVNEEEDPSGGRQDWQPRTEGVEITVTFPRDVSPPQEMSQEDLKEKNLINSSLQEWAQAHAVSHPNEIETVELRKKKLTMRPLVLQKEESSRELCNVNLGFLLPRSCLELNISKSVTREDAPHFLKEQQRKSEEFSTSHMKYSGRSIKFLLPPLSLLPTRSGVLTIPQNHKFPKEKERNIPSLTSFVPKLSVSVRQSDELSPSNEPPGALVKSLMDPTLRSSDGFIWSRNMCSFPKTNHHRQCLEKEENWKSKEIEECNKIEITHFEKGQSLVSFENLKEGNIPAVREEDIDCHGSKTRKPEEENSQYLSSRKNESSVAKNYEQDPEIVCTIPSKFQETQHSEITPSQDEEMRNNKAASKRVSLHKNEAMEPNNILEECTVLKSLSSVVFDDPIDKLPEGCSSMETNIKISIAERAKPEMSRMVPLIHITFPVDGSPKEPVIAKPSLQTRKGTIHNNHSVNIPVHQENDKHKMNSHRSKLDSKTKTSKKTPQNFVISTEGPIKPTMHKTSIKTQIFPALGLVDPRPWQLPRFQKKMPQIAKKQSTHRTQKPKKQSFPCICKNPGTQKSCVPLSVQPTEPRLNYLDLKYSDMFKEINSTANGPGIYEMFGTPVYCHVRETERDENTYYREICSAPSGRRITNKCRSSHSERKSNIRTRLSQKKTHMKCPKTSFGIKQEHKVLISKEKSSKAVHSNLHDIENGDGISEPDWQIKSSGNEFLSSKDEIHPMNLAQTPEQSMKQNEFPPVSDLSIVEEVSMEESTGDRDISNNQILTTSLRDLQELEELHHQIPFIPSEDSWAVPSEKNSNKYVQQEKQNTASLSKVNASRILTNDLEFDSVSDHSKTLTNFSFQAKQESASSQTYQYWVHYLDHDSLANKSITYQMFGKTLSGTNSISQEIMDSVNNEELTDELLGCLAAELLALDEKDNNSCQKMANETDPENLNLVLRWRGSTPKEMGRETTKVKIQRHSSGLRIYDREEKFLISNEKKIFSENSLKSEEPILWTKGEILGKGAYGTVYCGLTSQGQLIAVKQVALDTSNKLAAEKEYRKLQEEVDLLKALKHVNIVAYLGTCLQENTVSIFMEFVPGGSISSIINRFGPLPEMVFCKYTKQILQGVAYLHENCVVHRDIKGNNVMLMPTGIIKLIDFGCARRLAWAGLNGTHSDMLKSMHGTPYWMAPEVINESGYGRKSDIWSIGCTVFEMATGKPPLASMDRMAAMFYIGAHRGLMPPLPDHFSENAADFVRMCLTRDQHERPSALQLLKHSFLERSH

For `NC[C@@H](C(=O)Nc1ccc(-c2cn[nH]c2)cc1)c1ccccc1` [Compound 20, (S)—N-(4-(1H-pyrazol-4-yl)phenyl)-3-amino-2-phenylpropanamide dihydrochloride], the IC50 (ROCK1) was 1 to 10 nM, the IC50 (MYLK4) was 10 to 100 nM and the “inhibitory effect on YSK4 (in words)” value (YSK4) was “simultaneously targets ROCK, MYLK-4 and YSK-4”. For the same compound, the “time point at which maximum effect is achieved” value ([1]; dose 0.03%) was 8 h, the “Intraocular pressure difference (mmHg)” value ([1]; dose 0.03%, at time point of maximum effect) was 4.9 mmHg and the “maximum magnitude of the reduction in intraocular pressure” value [1, 7] was 4.4-4.9 mmHg. For the same compound, the “time of maximum effect (Emax) after administration” value [1, 7] was 6 to 8 h, the “eye irritation compared with AR-13324 (0.02%)” value (rabbit eyes; Compound 20 at 0.1%) was “lower than AR-13324” and the eye irritation (rabbit eyes; [7]) was “slight”. The “state of the cornea” value (cornea of rabbit eyes) was “free of damage and turbidity”, the “content in the aqueous humor after administration” value ([2]; normal rabbits) was “can reach the requirement of ROCK inhibition” and the “drug concentration at the target tissue (iris and ciliary body, aqueous humor)” value ([2]; rabbit eyes with normal intraocular pressure) was “reaches the target effect IC90 or more within 8 hours”. The “side effects, such as pink eye” value (normal macaques) was “without obvious side effects”, the “effect of reducing intraocular pressure compared with 0.02% AR-13324” value (normal macaques; once a day) was “equivalent to or better than that of AR-13324” and the “effect in reducing intraocular pressure compared with AR-13324 (t-test)” value ([3]; 0.1% Compound 20 versus 0.02% AR-13324, p<0.05) was “significantly better than that of AR-13324”. The AUC ([3]; dose 0.1%, intraocular pressure over 0-5 hours) was 99.1, the “Maximum intraocular pressure difference (%)” value [3, 8] was −40.4% and the “Maximum intraocular pressure difference (mm Hg)” value [3, 8] was −18.0 ± 6.8 mm Hg. For the same compound, the “reduction of the intraocular pressure” value ([3]; eye drop containing 0.1%) was “about 18.0±6.8 mmHg”, the “reduction of intraocular pressure in percent” value ([4]; eye drop containing 0.03%) was “about 15.3%” and the “reduction of intraocular pressure in percent” value ([4]; eye drop containing 0.1%) was “about 28.8%”. For the same compound, the “dose dependence of the reduction of intraocular pressure” value ([5]; 0.01%, 0.03%, 0.1%) was “exhibits a dose dependent effect”, the “increase of the reduction in intraocular pressure on Day 3 compared to Day 1” value ([5]; 0.03% Compound 20, on average) was roughly 1 mmHg and the “The magnitude of intraocular pressure reduction (ΔIOP) (mmHg)” value ([5]; Day 1, 0.01% Compound 20, 50 μL eye drop) was −2.9 ± 1.1 mmHg. The “The maximum magnitude of the reduction in intraocular pressure” value (shortened to “The maximum magnitude of the reduction”) ([5]; Day 1, 0.01% Compound 20, versus control eye) was 18.7%, the “The magnitude of intraocular pressure reduction (ΔIOP) (mmHg)” value ([5]; Day 1, 0.03% Compound 20, 50 μL eye drop) was −4.3 ± 1.2 mmHg and the “The maximum magnitude of the reduction” value ([5]; Day 1, 0.03% Compound 20, versus control eye) was 28.3%. For the same compound, the “The magnitude of intraocular pressure reduction (ΔIOP) (mmHg)” value ([5]; Day 1, 0.10% Compound 20, 50 μL eye drop) was −5.3 ± 0.6 mmHg, the “The maximum magnitude of the reduction” value ([5]; Day 1, 0.10% Compound 20, versus control eye) was 32.2% and the “The magnitude of intraocular pressure desc (ΔIOP) (mmHg)” value ([5]; Day 3, 0.01% Compound 20, once a day) was −2.7 ± 0.8 mmHg. The “The maximum magnitude of the reduction” value ([5]; Day 3, 0.01% Compound 20, versus control eye) was 15.4%, the “The magnitude of intraocular pressure desc (ΔIOP) (mmHg)” value ([5]; Day 3, 0.03% Compound 20, once a day) was −5.1 ± 1.2 mmHg and the “The maximum magnitude of the reduction” value ([5]; Day 3, 0.03% Compound 20, versus control eye) was 30.5%. The “The magnitude of intraocular pressure desc (ΔIOP) (mmHg)” value ([5]; Day 3, 0.10% Compound 20, once a day) was −5.2 ± 1.3 mmHg, the “The maximum magnitude of the reduction” value ([5]; Day 3, 0.10% Compound 20, versus control eye) was 32.6% and the “maximum effect (Emax) dose in the normal intraocular pressure rabbit model” value ([5]; eye drop concentration) was 0.03%. The “Tmax” value ([5]; rabbit, in vivo, dihydrochloride) was 6 h and 8 h.
For `C[C@@H]1C[C@H]2[C@@H]3CCC4=CC(=O)C=C[C@]4(C)[C@@]3(F)[C@@H](O)C[C@]2(C)[C@@]1(O)C(=O)CO` [dexamethasone], the “expression level of MYLK-4” value [6] was “higher than that of normal HTM cells”.
